The record followed here is ChEMBL document CHEMBL1201862, “PubChem BioAssay data set” (2004).

Test systems include 786-0; DU-145; EKVX; HCT-116; HCT-15; HL-60; HOP-92; LOX IMVI; M14; MOLT-4; NCI/ADR-RES; OVCAR-3; PC-3; RPMI-8226; SF-268; SF-539; SK-MEL-2; SN12C; SR; UACC-62.
Test in all cases: NCI tumour cell line growth inhibition, 48 h

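These data come from cells grown in 96-well plates and exposed to compound for 48 hours at five concentrations. At the GI50, growth is halved.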 Activity calls are given as the source filed them. Cut-off read from the data, not from the text of the source: active = GI50 up to about 1.1 µM and inactive = higher.

As for `c1ccc2c(c1)c1c(n2CCOCCN2CCCCC2)CCCC1`, the GI50 in the test with 786-0 is 13.4 µM (inactive); in the test on DU-145, 17.1 µM (inactive); with EKVX it was 16.9 µM (inactive); with HCT-116, 12.5 µM (inactive); in the test with HCT-15, 14.1 µM; with HL-60, 2.37 µM (inactive). In addition, the GI50 in the test on HOP-92 is 8.2 µM (inactive); in the test on LOX IMVI it was 13.3 µM (inactive); with M14 it was 12.8 µM (inactive); in the test with MOLT-4, 10.5 µM (inactive); in the test on NCI/ADR-RES, 10.1 µM (inactive); in the test on OVCAR-3 it was 9.75 µM (inactive). Besides, the GI50 with PC-3 was 9.04 µM (inactive); with RPMI-8226, 9.29 µM (inactive); in the test with SF-268 it was 16.9 µM (inactive); in the test on SF-539, 16.6 µM (inactive); in the test on SK-MEL-2, 8.77 µM (inactive); in the test with SN12C it was 13.7 µM (inactive). The results for the GI50 in the test on SR and with UACC-62 were 13.8 µM (inactive) and 15 µM (inactive), respectively.
Regarding `CCN(CC)C1CCC(C2c3cc4c(cc3OC(N3CCOCC3)C2C)OCO4)CC1` (stereo not given), the GI50 with 786-0 is 33.7 µM (inactive); in the test on DU-145, 18.5 µM (inactive); with EKVX, 22.8 µM (inactive); in the test with HCT-116 it was 32.3 µM (inactive); in the test on HCT-15, 12.1 µM; in the test with HL-60 it was 22.6 µM (inactive). In addition, the GI50 is 4.09 µM (inactive) with HOP-92; 11.4 µM (inactive) in the test with LOX IMVI; 13.7 µM (inactive) in the test on M14; 10.1 µM (inactive) with MOLT-4; 27 µM (inactive) in the test on NCI/ADR-RES; 14.7 µM (inactive) in the test with OVCAR-3. For the same compound, the GI50 in the test with PC-3 was 10.4 µM (inactive); with RPMI-8226, 15.5 µM (inactive); in the test on SF-268, > 100 µM (inactive); with SF-539, 22.3 µM (inactive); in the test on SK-MEL-2, 5.62 µM (inactive); in the test on SN12C it was > 29.2 µM (inactive). Besides, the values for the GI50 in the test on SR and in the test with UACC-62 were 23.4 µM (inactive) and 16.7 µM (inactive), respectively.
For the compound `O=c1[nH]c(=S)[nH]c(-c2ccccc2)c1Cc1c(O)ccc2ccccc12` [CAMBINOL], the GI50 in the test on 786-0 is 34.9 µM (inactive); in the test with DU-145, 41.9 µM (inactive); in the test on EKVX it was 26.1 µM (inactive); with HCT-116 it was 24.7 µM (inactive); with HCT-15, 34.4 µM; in the test with HL-60, 20.6 µM (inactive). The GI50 in the test on HOP-92 is 26.1 µM (inactive); in the test with LOX IMVI, 36.1 µM (inactive); in the test on M14, 27.9 µM (inactive); with MOLT-4, 26.1 µM (inactive); with NCI/ADR-RES, 33.5 µM (inactive); with OVCAR-3 it was 54.3 µM (inactive). For the same compound, the GI50 in the test on PC-3 was 37.2 µM (inactive); in the test with RPMI-8226 it was 21.6 µM (inactive); in the test with SF-268, 24.7 µM (inactive); in the test on SF-539, 25.6 µM (inactive); in the test on SK-MEL-2, 20.4 µM (inactive); in the test on SN12C, 32.7 µM (inactive). Further, the GI50 is 34.8 µM (inactive) in the test on SR and 21 µM (inactive) with UACC-62.
As for `CSc1ncc2c(n1)-c1ccccc1OC2N1CCOCC1` (stereo not given), the GI50 is 75.7 µM (inactive) in the test on 786-0; > 100 µM (inactive) with DU-145; 76 µM (inactive) in the test on EKVX; 69.7 µM (inactive) in the test on HCT-116; 53.7 µM in the test with HCT-15; 27.3 µM (inactive) in the test with HL-60. Besides, the GI50 with HOP-92 was 41.9 µM (inactive); in the test on LOX IMVI, 65.5 µM (inactive); in the test with M14 it was > 100 µM (inactive); in the test on MOLT-4 it was 43.3 µM (inactive); with NCI/ADR-RES, 57.1 µM (inactive); in the test on OVCAR-3, 56.2 µM (inactive). Besides, the GI50 with PC-3 was 31.6 µM (inactive); in the test with RPMI-8226, 49.9 µM (inactive); in the test on SF-268, 87.9 µM (inactive); with SF-539 it was > 100 µM (inactive); with SK-MEL-2, > 100 µM (inactive); in the test with SN12C it was 50 µM (inactive). The GI50 in the test on SR is 64.9 µM (inactive); in the test with UACC-62 it was 28.1 µM (inactive).
As to `O=c1c2cc([N+](=O)[O-])cnc2sn1-c1ccc(Br)cc1`, the GI50 in the test with 786-0 was 30.5 µM (inactive); in the test with DU-145, > 100 µM (inactive); with EKVX it was 42.5 µM (inactive); with HCT-116, 19.5 µM (inactive); with HCT-15 it was 57.4 µM; in the test on HL-60, 34.5 µM (inactive). For the same compound, the GI50 is 23.8 µM (inactive) with HOP-92; 19.3 µM (inactive) in the test with LOX IMVI; 53 µM (inactive) with M14; 32.8 µM (inactive) in the test on MOLT-4; 33.9 µM (inactive) in the test on NCI/ADR-RES; 22.4 µM (inactive) with OVCAR-3. Further, the GI50 was 33.7 µM (inactive) in the test on PC-3; 26.6 µM (inactive) with RPMI-8226; 27.5 µM (inactive) in the test with SF-268; 27.3 µM (inactive) in the test with SF-539; 32.7 µM (inactive) in the test on SK-MEL-2; 72.6 µM (inactive) in the test on SN12C. Further, the figures for the GI50 in the test on SR and with UACC-62 were 21.8 µM (inactive) and 82.4 µM (inactive), respectively.
